According to the supplement of paper PMC13380429:

Tests used:
Conditions in all cases: 72 h
[1] = test system: Caco-2; assay: cell viability relative to DMSO; higher = less toxic
[2] = test system: Calu-3; assay: as above
[3] = test system: HepG2; assay: as above
[4] = test system: U2OS; assay: as above
[5] = test system: Vero E6; assay: as above
[6] = test system: Caco-2; assay: relative viability EC50 (midpoint between 100% and the lowest measured viability); higher = less toxic
[7] = test system: Calu-3; assay: as above
[8] = test system: HepG2; assay: as above
[9] = test system: U2OS; assay: as above
[10] = test system: Vero E6; assay: as above
[11] = test system: Caco-2; assay: drug sensitivity score (DSS) for viability; higher = more toxic; extreme values may be limits of the assay
[12] = test system: Calu-3; assay: as above
[13] = test system: HepG2; assay: as above
[14] = test system: U2OS; assay: as above
[15] = test system: Vero E6; assay: as above

SMILES: CNC(=O)c1c(-c2ccc(F)cc2)oc2cc(N(CCO)S(C)(=O)=O)c(C3CC3)cc12 [nesbuvir]
- cell viability ([1]; 1 nM): 94%
- cell viability ([1]; 10 nM): 101%
- cell viability ([1]; 100 nM): 95%
- cell viability ([1]; 1000 nM): 99%
- cell viability ([1]; 10000 nM): 101%
- cell viability ([2]; 1 nM): 108%
- cell viability ([2]; 10 nM): 107%
- cell viability ([2]; 100 nM): 99.9%
- cell viability ([2]; 1000 nM): 110%
- cell viability ([2]; 10000 nM): 103%
- cell viability ([3]; 1 nM): 97.3%
- cell viability ([3]; 10 nM): 90%
- cell viability ([3]; 100 nM): 103%
- cell viability ([3]; 1000 nM): 92.2%
- cell viability ([3]; 10000 nM): 107%
- cell viability ([4]; 1 nM): 93.3%
- cell viability ([4]; 10 nM): 102%
- cell viability ([4]; 100 nM): 96.4%
- cell viability ([4]; 1000 nM): 99.9%
- cell viability ([4]; 10000 nM): 102%
- cell viability ([5]; 1 nM): 98.4%
- cell viability ([5]; 10 nM): 97%
- cell viability ([5]; 100 nM): 98.6%
- cell viability ([5]; 1000 nM): 93.6%
- cell viability ([5]; 10000 nM): 103%
- relative viability EC50 [6]: > 10 µM
- relative viability EC50 [7]: > 10 µM
- relative viability EC50 [8]: > 10 µM
- relative viability EC50 [9]: > 10 µM
- relative viability EC50 [10]: > 10 µM
- drug sensitivity score [11]: 0
- drug sensitivity score [12]: 0
- drug sensitivity score [13]: 0
- drug sensitivity score [14]: 0
- drug sensitivity score [15]: 0

SMILES: CC(C)=CCC[C@](C)(O[C@@H]1O[C@H](CO)[C@@H](O)[C@H](O)[C@H]1O)[C@H]1CC[C@]2(C)[C@@H]1[C@H](O)C[C@@H]1[C@@]3(C)CC[C@H](O[C@@H]4O[C@H](CO)[C@@H](O)[C@H](O)[C@H]4O[C@@H]4O[C@H](CO)[C@@H](O)[C@H](O)[C@H]4O)C(C)(C)[C@@H]3CC[C@]12C [ginsenoside-RD]
- cell viability ([1]; 1 nM): 105%
- cell viability ([1]; 10 nM): 98.7%
- cell viability ([1]; 100 nM): 94.4%
- cell viability ([1]; 1000 nM): 92.3%
- cell viability ([1]; 10000 nM): 104%
- cell viability ([2]; 1 nM): 105%
- cell viability ([2]; 10 nM): 103%
- cell viability ([2]; 100 nM): 101%
- cell viability ([2]; 1000 nM): 107%
- cell viability ([2]; 10000 nM): 99.8%
- cell viability ([3]; 1 nM): 94.2%
- cell viability ([3]; 10 nM): 97.3%
- cell viability ([3]; 100 nM): 101%
- cell viability ([3]; 1000 nM): 88.9%
- cell viability ([3]; 10000 nM): 89.6%
- cell viability ([4]; 1 nM): 102%
- cell viability ([4]; 10 nM): 98.9%
- cell viability ([4]; 100 nM): 101%
- cell viability ([4]; 1000 nM): 100%
- cell viability ([4]; 10000 nM): 102%
- cell viability ([5]; 1 nM): 99.6%
- cell viability ([5]; 10 nM): 101%
- cell viability ([5]; 100 nM): 97.2%
- cell viability ([5]; 1000 nM): 100%
- cell viability ([5]; 10000 nM): 99.3%
- relative viability EC50 [6]: > 10 µM
- relative viability EC50 [7]: > 10 µM
- relative viability EC50 [8]: > 10 µM
- relative viability EC50 [9]: > 10 µM
- relative viability EC50 [10]: > 10 µM
- drug sensitivity score [11]: 0
- drug sensitivity score [12]: 0
- drug sensitivity score [13]: 0.3
- drug sensitivity score [14]: 0
- drug sensitivity score [15]: 0

SMILES: N=C1N[C@H]2[C@H](CS[C@H]2CCCCC(=O)O)N1 [2-iminobiotin]
- cell viability ([1]; 1 nM): 93.6%
- cell viability ([1]; 10 nM): 105%
- cell viability ([1]; 100 nM): 96.8%
- cell viability ([1]; 1000 nM): 98.8%
- cell viability ([1]; 10000 nM): 98%
- cell viability ([2]; 1 nM): 105%
- cell viability ([2]; 10 nM): 98.8%
- cell viability ([2]; 100 nM): 101%
- cell viability ([2]; 1000 nM): 118%
- cell viability ([2]; 10000 nM): 106%
- cell viability ([3]; 1 nM): 100%
- cell viability ([3]; 10 nM): 102%
- cell viability ([3]; 100 nM): 106%
- cell viability ([3]; 1000 nM): 97.6%
- cell viability ([3]; 10000 nM): 106%
- cell viability ([4]; 1 nM): 102%
- cell viability ([4]; 10 nM): 102%
- cell viability ([4]; 100 nM): 99.5%
- cell viability ([4]; 1000 nM): 104%
- cell viability ([4]; 10000 nM): 98.3%
- cell viability ([5]; 1 nM): 110%
- cell viability ([5]; 10 nM): 106%
- cell viability ([5]; 100 nM): 105%
- cell viability ([5]; 1000 nM): 97.5%
- cell viability ([5]; 10000 nM): 102%
- relative viability EC50 [6]: > 10 µM
- relative viability EC50 [7]: > 10 µM
- relative viability EC50 [8]: > 10 µM
- relative viability EC50 [9]: > 10 µM
- relative viability EC50 [10]: > 10 µM
- drug sensitivity score [11]: 0
- drug sensitivity score [12]: 0
- drug sensitivity score [13]: 0
- drug sensitivity score [14]: 0
- drug sensitivity score [15]: 0

SMILES: COC(=O)C1=C(C)NC(C)=C(C(=O)OC/C=C/c2ccccc2)C1c1cccc([N+](=O)[O-])c1 (stereo not given) [pranidipine]
- cell viability ([1]; 1 nM): 101%
- cell viability ([1]; 10 nM): 80%
- cell viability ([1]; 100 nM): 97%
- cell viability ([1]; 1000 nM): 91.5%
- cell viability ([1]; 10000 nM): 92.6%
- cell viability ([2]; 1 nM): 103%
- cell viability ([2]; 10 nM): 101%
- cell viability ([2]; 100 nM): 99.7%
- cell viability ([2]; 1000 nM): 91.7%
- cell viability ([2]; 10000 nM): 91.8%
- cell viability ([3]; 1 nM): 97.1%
- cell viability ([3]; 10 nM): 102%
- cell viability ([3]; 100 nM): 107%
- cell viability ([3]; 1000 nM): 103%
- cell viability ([3]; 10000 nM): 95.1%
- cell viability ([4]; 1 nM): 98.1%
- cell viability ([4]; 10 nM): 93%
- cell viability ([4]; 100 nM): 99.6%
- cell viability ([4]; 1000 nM): 95.5%
- cell viability ([4]; 10000 nM): 94.8%
- cell viability ([5]; 1 nM): 93.8%
- cell viability ([5]; 10 nM): 103%
- cell viability ([5]; 100 nM): 83.1%
- cell viability ([5]; 1000 nM): 95.1%
- cell viability ([5]; 10000 nM): 96.9%
- relative viability EC50 [6]: > 10 µM
- relative viability EC50 [7]: > 10 µM
- relative viability EC50 [8]: > 10 µM
- relative viability EC50 [9]: > 10 µM
- relative viability EC50 [10]: > 10 µM
- drug sensitivity score [11]: 0
- drug sensitivity score [12]: 0
- drug sensitivity score [13]: 0
- drug sensitivity score [14]: 0
- drug sensitivity score [15]: 0

SMILES: CN1C(=O)C(F)=C[C@]2(C)[C@H]3CC[C@]4(C)[C@@H](C(=O)NCc5nc6cccnc6[nH]5)CC[C@H]4[C@@H]3CC[C@@H]12 [MK-0773]
- cell viability ([1]; 1 nM): 102%
- cell viability ([1]; 10 nM): 92.4%
- cell viability ([1]; 100 nM): 100%
- cell viability ([1]; 1000 nM): 83.3%
- cell viability ([1]; 10000 nM): 87.7%
- cell viability ([2]; 1 nM): 103%
- cell viability ([2]; 10 nM): 103%
- cell viability ([2]; 100 nM): 101%
- cell viability ([2]; 1000 nM): 97.7%
- cell viability ([2]; 10000 nM): 100%
- cell viability ([3]; 1 nM): 91.1%
- cell viability ([3]; 10 nM): 108%
- cell viability ([3]; 100 nM): 93%
- cell viability ([3]; 1000 nM): 91.4%
- cell viability ([3]; 10000 nM): 87.9%
- cell viability ([4]; 1 nM): 99%
- cell viability ([4]; 10 nM): 99.4%
- cell viability ([4]; 100 nM): 98.8%
- cell viability ([4]; 1000 nM): 95.4%
- cell viability ([4]; 10000 nM): 95.9%
- cell viability ([5]; 1 nM): 99.2%
- cell viability ([5]; 10 nM): 102%
- cell viability ([5]; 100 nM): 96.2%
- cell viability ([5]; 1000 nM): 104%
- cell viability ([5]; 10000 nM): 104%
- relative viability EC50 [6]: > 10 µM
- relative viability EC50 [7]: > 10 µM
- relative viability EC50 [8]: > 10 µM
- relative viability EC50 [9]: > 10 µM
- relative viability EC50 [10]: > 10 µM
- drug sensitivity score [11]: 1.8
- drug sensitivity score [12]: 0
- drug sensitivity score [13]: 0.9
- drug sensitivity score [14]: 0
- drug sensitivity score [15]: 0

SMILES: C[C@H]1O[C@@H](Oc2c(-c3cc(O)c(O)c(O)c3)oc3cc(O)cc(O)c3c2=O)[C@@H](O)[C@@H](O)[C@@H]1O [myricitrin]
- cell viability ([1]; 1 nM): 100%
- cell viability ([1]; 10 nM): 105%
- cell viability ([1]; 100 nM): 100%
- cell viability ([1]; 1000 nM): 105%
- cell viability ([1]; 10000 nM): 96%
- cell viability ([2]; 1 nM): 92.5%
- cell viability ([2]; 10 nM): 99.2%
- cell viability ([2]; 100 nM): 96.7%
- cell viability ([2]; 1000 nM): 101%
- cell viability ([2]; 10000 nM): 94.4%
- cell viability ([3]; 1 nM): 104%
- cell viability ([3]; 10 nM): 98.3%
- cell viability ([3]; 100 nM): 109%
- cell viability ([3]; 1000 nM): 86.6%
- cell viability ([3]; 10000 nM): 99.6%
- cell viability ([4]; 1 nM): 97.9%
- cell viability ([4]; 10 nM): 97.4%
- cell viability ([4]; 100 nM): 94.7%
- cell viability ([4]; 1000 nM): 99.1%
- cell viability ([4]; 10000 nM): 94.7%
- cell viability ([5]; 1 nM): 99.5%
- cell viability ([5]; 10 nM): 98.5%
- cell viability ([5]; 100 nM): 97.7%
- cell viability ([5]; 1000 nM): 96.1%
- cell viability ([5]; 10000 nM): 93.8%
- relative viability EC50 [6]: > 10 µM
- relative viability EC50 [7]: > 10 µM
- relative viability EC50 [8]: > 10 µM
- relative viability EC50 [9]: > 10 µM
- relative viability EC50 [10]: > 10 µM
- drug sensitivity score [11]: 0
- drug sensitivity score [12]: 0
- drug sensitivity score [13]: 0
- drug sensitivity score [14]: 0
- drug sensitivity score [15]: 0
